# pEC50: −log10 of the molar value. Several values for one entry are separate records, joined by “and”; a condition that tells them apart may be missing. Equal values may be shown once. Where a name gives a salt, the structure may show the parent alone. Read-outs that look alike come from different tables or passages of the source.
# What was measured:
# IMR90 = assay: Biological activity EC50, IMR90; type: cell-based; conditions: Homo sapiens, IMR-90; Target (Cell Line): IMR90
# P. falc W2 = assay: Biological activity EC50, P. falc W2; type: cell-based; conditions: Plasmodium falciparum; for pEC50: Target (Cell Line): P. falc W2, read-out: Activity EC50; for EC50: read-out: Activity EC50 (nM)
# HeLa = assay: Biological activity EC50, HeLa; type: cell-based; conditions: Homo sapiens; Target (Cell Line): HeLa
# P. falc = assay: Biological activity EC50, P. falc (strain not given); type: cell-based; conditions: Plasmodium falciparum; Target (Cell Line): P. falc
# U87MG = assay: Biological activity EC50, U87MG; type: cell-based; conditions: Homo sapiens, U-87 MG; Target (Cell Line): U87MG
# MB-MDA-231 = assay: Biological activity EC50, MB-MDA-231; type: cell-based; conditions: for pEC50: Target (Cell Line): MB-MDA-231, read-out: Activity EC50
# P. falc DD2 = assay: Biological activity EC50, P. falc DD2; type: cell-based; conditions: Plasmodium falciparum; Target (Cell Line): P. falc DD2
# MCF-7 = assay: Biological activity EC50, MCF-7; type: cell-based; conditions: Homo sapiens, MCF7; Target (Cell Line): MCF-7
# PC-3 = assay: Biological activity EC50, PC-3; type: cell-based; conditions: Homo sapiens; Target (Cell Line): PC-3
# P. falc D10 = assay: Biological activity EC50, P. falc D10; type: cell-based, P. falciparum; conditions: Target (Cell Line): P. falc D10
structure (smiles),measurement,setting,value
"COc1ccc(/C=C/C(=O)N2CC(CCl)c3c2cc(NC(=O)OC2CCCC4(C2)OCC2(O4)C4CC5CC(C4)CC2C5)c2ccccc32)cc1 (centres unmarked) [Example 15, dispiro[adamantane-2,4′-[1,3]dioxolane-2′,1″-cyclohexane]-3″-yl N-[1-(chloromethyl)-3-[(2E)-3-(4-methoxyphenyl)prop-2-enoyl]-1H,2H,3H-benzo[e]indol-5-yl]carbamate]",pEC50,IMR90,< 6.00
same,pEC50,P. falc W2,7.39
same,pEC50,HeLa,< 6.00
"O=C(Nc1cc(Cl)ccc1Cl)O[C@@H]1C[C@H](OC(=O)Nc2cc(Cl)ccc2Cl)CC2(C1)OOC1(O2)C2CC3CC(C2)CC1C3 (relative stereo) [Example 4, (3″R*,5″S*)-5″-{[(2,5-dichlorophenyl)carbamoyl]oxy}dispiro[adamantane-2,2′-[1,3,5]trioxolane-4′,1″-cyclohexane]-3″-yl N-(2,5-dichlorophenyl)carbamate]",pEC50,P. falc,6.83
"COc1ccc(/C=C/C(=O)N2CC(CCl)c3c2cc(N)c2ccccc32)cc1 (centres unmarked) [Literature Compound C, reference compound]",pEC50,U87MG,8.30
same,pEC50,IMR90,8.52
same,EC50,P. falc W2,0.45 nM
same,pEC50,HeLa,7.96
"O=C1CCCC2(C1)OOC1(O2)C2CC3CC(C2)CC1C3 (centres unmarked) [Cmpd 2b, dispiro[adamantane-2,2′-[1,3,5]trioxolane-4′,1″-cyclohexane]-3″-one]",pEC50,P. falc,6.39
"C=CC1(OC(=O)Nc2cc(Cl)ccc2Cl)CCCC2(C1)OOC1(O2)C2CC3CC(C2)CC1C3 (centres unmarked) [Example 2, 3″-ethenyldispiro[adamantane-2,2′-[1,3,5]trioxolane-4′,1′-cyclohexane]-3″-yl N-(2,5-dichlorophenyl)carbamate]",pEC50,P. falc,7.97
"COc1ccc(C[C@H](N)C(=O)N[C@H]2[C@@H](O)[C@H](n3cnc4c(N(C)C)ncnc43)O[C@@H]2CO)cc1 [Puromycin dihydrochloride, reference compound]",pEC50,MB-MDA-231,6.24
same,pEC50,IMR90,5.77
same,pEC50,HeLa,6.11
same,pEC50,P. falc DD2,7.60
"COc1ccc(-c2cnnn2-c2cc(OC)c(OC)c(OC)c2)cc1NC(=O)OC1CCCC2(C1)OCC1(O2)C2CC3CC(C2)CC1C3 (stereo not drawn) [Example 12, dispiro[adamantane-2,4′-[1,3]dioxolane-2′,1″-cyclohexane]-3″-yl N-{2-methoxy-S-[1-(3,4,5-trimethoxyphenyl)-1H-1,2,3-triazol-5-yl]phenyl}carbamate]",pEC50,P. falc W2,< 6.00
same,pEC50,HeLa,< 6.00
same,pEC50,MCF-7,< 6.00
same,pEC50,PC-3,< 6.00
COC1CCC[C@]2(C1)OOC1(O2)C2CC3CC(C2)CC1C3 (some centres unmarked) [Example 25],pEC50,P. falc W2,7.57
"CCCCC(C(=O)COc1c(F)c(F)cc(F)c1F)n1cc(C2(N)CCCCC2)nn1 (centres unmarked) [Literature Compound A, reference compound]",pEC50,P. falc D10; Plasmodium falciparum,7.15
"CN(C)c1cccc2c(S(=O)(=O)N3CCC4(CC3)OOC3(O4)C4CC5CC(C4)CC3C5)cccc12 (centres unmarked) [Example 21, 5-({dispiro[adamantane-2,2′-[1,3,5]trioxolane-4′,4″-piperidine]-1″-yl}sulfonyl)-N,N-dimethylnaphthalen-1-amine]",pEC50,P. falc DD2,7.27
"CC(C)(N)CNC(=O)OC1CCCC2(C1)OOC1(O2)C2CC3CC(C2)CC1C3 (centres unmarked) [Example 23, Dispiro[adamantane-2,2′-[1,3,5]trioxolane-4′,1″-cyclohexane]-3″-yl N-(2-amino-2-methylpropyl)carbamate]",pEC50,P. falc W2,8.30
"CN(C)c1cccc2c(S(=O)(=O)NC34CC5CC(C3)C3(OOC6(CCCCC6)O3)C(C5)C4)cccc12 (centres unmarked) [Example 20, 5-(dimethylamino)-N-{dispiro[adamantane-2,2′-trioxolane-4′,1″-cyclohexane]-7-yl}naphthalene-1-sulfonamide]",pEC50,P. falc DD2,7.94
"CCNC(=O)OC1CCCC2(C1)OOC1(O2)C2CC3CC(C2)CC1C3 (centres unmarked) [Example 5, dispiro[adamantane-2,2′-[1,3,5]trioxolane-4′,1″-cyclohexane]-3″-yl N-ethylcarbamate]",pEC50,P. falc W2,8.23
"O=C(OC1CCCC2(C1)OOC1(O2)C2CC3CC(C2)CC1C3)N1CCCCC1[C@@H](O)c1cc(C(F)(F)F)nc2c(C(F)(F)F)cccc12 (stereo partly drawn) [Example 6, dispiro[adamantane-2,2′-[1,3,5]trioxolane-4′,1″-cyclohexane]-3″-v 2-[(S)-[2,8-bis(trifluoromethyl)quinolin-4-yl](hydroxy)methyl]piperidine-1-carboxylate]",pEC50,P. falc W2,7.77
"COc1ccc(-c2cnnn2-c2cc(OC)c(OC)c(OC)c2)cc1NC(=O)OC1CCCC2(C1)OOC1(O2)C2CC3CC(C2)CC1C3 (centres unmarked) [Example 11, dispiro[adamantane-2,2′-[1,3,5]trioxolane-4′,1″-cyclohexane]-3″-yl N-{2-methoxy-5-[1-(3,4,5-trimethoxyphenyl)-1H-1,2,3-triazol-5-yl]phenyl}carbamate]",pEC50,MB-MDA-231,7.38
same,pEC50,P. falc W2,7.47
same,pEC50,HeLa,7.24
same,pEC50,MCF-7,7.62
same,pEC50,PC-3,7.59
"O=C(Oc1ccc2ccc(=O)oc2c1)OC1CCCC2(C1)OOC1(O2)C2CC3CC(C2)CC1C3 (centres unmarked) [Example 17, dispiro[adamantane-2,2′-[1,3,5]trioxolane-4′,1″-cyclohexane]-3″-yl 2-oxo-2H-chromen-7-yl carbonate]",pEC50,P. falc D10; Plasmodium falciparum,7.60
"COc1ccc(C[C@H](NC(=O)OC2CCCC3(C2)OOC2(O3)C3CC4CC(C3)CC2C4)C(=O)N[C@H]2[C@@H](O)[C@H](n3cnc4c(N(C)C)ncnc43)O[C@@H]2CO)cc1 (stereo partly drawn) [Example 22, dispiro[adamantane-2,2′-[1,3,5]trioxolane-4′,1″-cyclohexane]-3″-yl N-[(1S)-1-{[(2S,3S,4R,5R)-5-[6-(dimethylamino)-9H-purin-9-yl]-4-hydroxy-2-(hydroxymethyl)oxolan-3-yl]carbamoyl}-2-(4-methoxyphenyl)ethyl]carbamate]",pEC50,MB-MDA-231,5.28
same,pEC50,IMR90,5.16
same,pEC50,HeLa,5.49
same,pEC50,P. falc DD2,7.90
"CC(C)(C)[C@H]1C[C@H](OC(=O)Nc2cc(Cl)ccc2Cl)CC2(C1)OOC1(O2)C2CC3CC(C2)CC1C3 (some centres unmarked) [Example 3, (3″S,5″S)-5″-tert-butyldispiro[adamantane-2,2′-trioxolane-4′,1″-cyclohexane]-3″-yl N-(2,5-dichlorophenyl)carbamate]",pEC50,P. falc,7.18
"O=C(Nc1cc(Cl)ccc1Cl)OC1CCCC2(C1)OOC1(O2)C2CC3CC(C2)CC1C3 (centres unmarked) [Example 1, dispiro[adamantane-2,2′-[1,3,5]trioxolane-4′,1″-cyclohexane]-3″-yl N-(2,5-dichlorophenyl)carbamate]",pEC50,P. falc,7.84
"COc1ccc(-c2cnnn2-c2cc(OC)c(OC)c(OC)c2)cc1N [Literature Compound B, reference compound]",EC50,MB-MDA-231; read-out: Activity EC50 (nM),10 nM
same,EC50,P. falc W2,> 1000 nM
same,pEC50,HeLa,7.96
same,pEC50,MCF-7,8.00
same,pEC50,PC-3,8.05
"CCCCC(C(=O)COc1c(F)c(F)cc(F)c1F)n1cc(C2(NC(=O)OC3CCCC4(C3)OOC3(O4)C4CC5CC(C4)CC3C5)CCCCC2)nn1 (centres unmarked) [Example 9, dispiro[adamantane-2,2′-[1,3,5]trioxolane-4′,1″-cyclohexane]-3″-yl N-(1-{1-[2-oxo-1-(2,3,5,6-tetrafluorophenoxy)heptan-3-yl]-1H-1,2,3-triazol-4-yl}cyclohexyl)carbamate]",pEC50,P. falc D10; Plasmodium falciparum,7.54
same,pEC50,P. falc D10,7.80 and 7.63

# Reference: US11014955B2, “Cyclic peroxides as prodrugs for selective delivery of agents” (THE REGENTS OF THE UNIVERSITY OF CALIFORNIA, priority 2014, dated 2021)
